Measurements reported in patent US7550468B2, “Theophylline and 3-isobutyl-1 methylxanthine based N-7 substituted derivatives displaying inhibitory activities on PDE-5 phospodiesterase” (priority 2000, dated 2009).

Key:
PDE5 (human platelet) = biological target: T1, PDE5 (human platelet) (Homo sapiens, UniProt O76074); assay: PDE5 (human platelet) inhibition; assay type: biochemical
T1 construct: PDE5 (human); from tissue; host or cells: human platelets

Rabbit Corpus Cavernosal = assay: Relaxation of phenylephrine precontracted rabbit corpus cavernosal strips; assay type: cell-based; settings: for IC50 / EC50: Oryctolagus cuniculus
Excerpt: Recently some reports have stated that theophyllline has an adenosine […] antagonist and phosphodiesterase (PDE) inhibitor function. […] FIG. 4A illustrates the experimental results and the effects of compound 14 on phenylphrine precontracted rabbit corpus cavemosal in the absence and presence of L-NAME, methylene blue, ODQ. FIG. 4B illustrates the experimental results and the effects of compound 14 on phenylphrine precontracted rabbit corpus cavernosal in absence and presence of potassium channel blockers.

intracavernous pressure = assay: Intracavernous pressure and tumescence response in rabbits; assay type: in vivo; settings: 2 mg/kg in rabbits

Row | Molecule | IC50 (PDE5 (human platelet)) [nM] | IC50 (Rabbit Corpus Cavernosal) [nM] | Duration of tumescence response (intracavernous pressure) [min] | Peak increased intracavernous pressure ΔICP (mmHg) (intracavernous pressure) | also measured
1 | CCCn1cnc2c1c(=O)n(C)c(=O)n2CC(C)C [Compound 46] | 5.2 ± 0.1 |  |  |  | pEC50 (−log EC50) for relaxation (Rabbit Corpus Cavernosal): 7.96 ± 0.03
2 | 7-{2-[(2-propoxybenzyl)aniino]ethyl}-3-isobutyl-1-methylxanthine [Compound 38] | 0.6 ± 0.2 |  |  |  | pEC50 (−log EC50) for relaxation (Rabbit Corpus Cavernosal): 8.16 ± 0.07
3 | CCCOc1ccc(C(N)=O)cc1CNCCn1cnc2c1c(=O)n(C)c(=O)n2CC(C)C [Compound 41, 4-propoxy-3-({[2-(3-isobutyl-1-methyl-2,6-dioxo-1,2,3,6-tetrahydro-7H-purin-7-yl)ethyl]amino}methyl)benzamide] | 0.8 ± 0.2 | 5.01 |  |  | 
4 | Cn1c(=O)c2c(ncn2CCN2CCN(c3ccccc3Cl)CC2)n(C)c1=O [Compound 4, 7-{2-[4-(2-chlorophenyl)piperazinyl]ethyl}-1,3-dimethylxanthine] | 3.9 ± 0.1 | 69.2 | 14 ± 1.1 | 14 ± 2.1 | 
5 | CC(C)Cn1c(=O)n(C)c(=O)c2c1ncn2CCN1CCN(c2ccccc2Cl)CC1 [Compound 14, 7-{2-[4-(2-chlorophenyl)piperazinyl]ethyl}-3-isobutyl-1-methylxanthine] | 3.8 ± 0.2 | 14.5 |  |  | EC50 (Rabbit Corpus Cavernosal; Control (no drug pretreatment)): 64.6 nM; EC50 (Rabbit Corpus Cavernosal; pretreatment 4-AP 100 μM): 1480 nM; EC50 (Rabbit Corpus Cavernosal; pretreatment Glibenclamide 1 μM): 269 nM; EC50 (Rabbit Corpus Cavernosal; pretreatment L-NAME 100 μM): 309 nM; EC50 (Rabbit Corpus Cavernosal; pretreatment Methylene blue 10 μM): 309 nM; EC50 (Rabbit Corpus Cavernosal; pretreatment ODQ 1 μM): 162 nM; EC50 (Rabbit Corpus Cavernosal; pretreatment TEA 10 mM): 9180 nM
6 | 7-[12-({5-[(4-methylpiperazin-1-yl)sulfonyl]-2-propoxybenzyl}amino)ethyl] dimethylxanthine [Compound 35] | 0.4 ± 0.1 |  |  |  | pEC50 (−log EC50) for relaxation (Rabbit Corpus Cavernosal): 8.25 ± 0.06
7 | CCOc1ccc(S(=O)(=O)N2CCN(C)CC2)cc1CNCCn1cnc2c1c(=O)n(C)c(=O)n2C [Compound 34, 7-[2-({5-[(4-methylpiperazin-1-yl)sulfonyl]-2-ethoxybenzyl}amino)ethyl] dimethylxanthine] | 0.4 ± 0.2 |  |  |  | pEC50 (−log EC50) for relaxation (Rabbit Corpus Cavernosal): 8.13 ± 0.05
8 | Cn1c(=O)c2c(ncn2CCN2CCN(Cc3ccccc3)CC2)n(C)c1=O [Compound 7, 7-{2-[4-benzylpiperazinyl]ethyl}-1,3-dimethylxanthine] | 4.2 ± 0.2 | 74.1 |  |  | 
9 | CC(C)Cn1c(=O)n(C)c(=O)c2c1ncn2CCN1CCN(C(=O)c2ccco2)CC1 [Compound 18, 7-{2-[4-(2-furoyl)piperazinyl]ethyl}-3-isobutyl-1-methylxanthine] |  |  | 18 ± 1.3 | 26 ± 1.4 | 
10 | CC(C)Cn1c(=O)n(C)c(=O)c2c1ncn2CCN1CCN(c2ncccn2)CC1 [Compound 12, 7-{2-[4-(2-Pyrimidyl)piperazinyl]ethyl}-3-isobutyl-1-methylxanthine] |  |  | 15 ± 1.3 | 23 ± 1.5 | 
11 | Cc1ccccc1S(=O)(=O)N1CCN(CCn2cnc3c2c(=O)n(C)c(=O)n3CC(C)C)CC1 [Compound 26, 7-(2-{4-[(2-methylphenyl)sulfonyl]piperazinyl}ethyl)-3-isobutyl-1-methylxanthine] | 4.8 ± 0.2 | 38 |  |  | 
12 | COc1ccccc1N1CCN(CCn2cnc3c2c(=O)n(C)c(=O)n3C)CC1 [Compound 10, 7-{2-[4-(o-Methoxyphenyl)piperazinyl]ethyl}-1,3-dimethylxanthine] |  |  | 13 ± 2.1 | 12 ± 1.6 | 
13 | 7-{2-[4-(nitrobenzene)piperazinyl]ethyl}-1,3-dimethylxanthine [Compound 9] |  |  | 16 ± 1.2 | 25 ± 1.3 | 
14 | CC(C)Cn1c(=O)n(C)c(=O)c2c1ncn2CCN1CCN(Cc2ccccc2)CC1 [Compound 17, 7-{2-[4-benzylpiperazinyl]ethyl}-3-isobutyl-1-methylxanthine] | 6.2 ± 0.2 | 22.9 |  |  | 
